According to patent US20150359884A1, “MULTI-PHOTON ISOMERISATION OF COMBRETASTATINS AND THEIR USE IN THERAPY” (priority 2011, published 2015):

Experiments:
[1] = Fluorescence lifetimes in solvents, two-photon excitation with TCSPC; type: physicochemical; settings: for Fluorescence lifetime τ: 20° C., two-photon excitation 620-630 nm
Experimental: Fluorescence lifetimes were determined using 2PE at 630 nm with the microscope TCSPC setup (overall time response of 25 ps fwhm) and produced the results shown in Table 1. […] Characterisation of the spectroscopic properties of these latter two compounds remains to be investigated further. […] In the very viscous environment provided by glycerol the lifetime increases further to 1180 ps. In the range of alkanols studied the lifetime is closely correlated with solvent viscosity as shown in the inset to FIG. 3. […] However it is clear that the measured lifetime has the potential to report on cellular environments in FLIM studies. For E-CA4F similar trends are observed, but the overall differences in both lifetimes and quantum yields over the range of solvents are rather less than for E-CA4. The fluorescence lifetimes of E-CA4F are confined to a narrower range having values ranging from 440 ps in methanol through 740 ps in hexane to 1070 ps in glycerol. The more pronounced solvent dependence for E-CA4 no doubt reflects the more polar nature of the molecule compared with E-CA4F. The relative polarities may be judged from the partition coefficients (P) calculated according to the method of Brown et al..

[2] = tested on: Chinese hamster ovary (CHO) cells; experiment: Fluorescence lifetime imaging (FLIM) of uptake and intracellular concentration in CHO cells
Experimental: Both HeLa and Chinese hamster ovary (CHO) cells were obtained from the European Collection of Cell Cultures. HeLa cells were cultured in MEM medium (Gibco) containing 10% foetal calf serum, penicillin (100 units/mL), streptomycin (100 μg/mL) and glutamine (2 mM). CHO cells were cultured in DMEM (Gibco) with the same additions as for the HeLa cells. For microscopy the adherent cell cultures were grown in 35 mm diameter glass-bottom culture dishes with optical quality glass (MatTek Corporation) and incubated at 37° C. in a humidified atmosphere containing 5% CO2. Human umbilical vein endothelial cells (HUVECs) were obtained from TCS Cellworks. […]
The fluorescence lifetime imaging system with multiphoton excitation employed lasers for multiphoton excitation consisting of a Ti:Sapphire laser, tuneable between 700 and 1000 nm and providing ca 180 fs pulses at 76 MHz, and an optical parametric oscillator (OPO) pumped by a second Ti:Sapphire laser source. […] Using the various microscope ports it was possible to record the fluorescence in a number of ways. The fluorescence signal at one port was relayed to a spectrometer (Acton 275) and CCD setup (Andor iDUS) so that emission spectra and intensities could be recorded. […] In FLIM mode the fluorescence was isolated by a suitable narrowband interference filter (400IU25 together with BG3 (Comar)). […]

[3] = tested on: HeLa cells; experiment: Fluorescence lifetime imaging (FLIM) of uptake and intracellular concentration in HeLa cells; settings: HeLa cells, 100 μM added
Experimental: Both HeLa and Chinese hamster ovary (CHO) cells were obtained from the European Collection of Cell Cultures. HeLa cells were cultured in MEM medium (Gibco) containing 10% foetal calf serum, penicillin (100 units/mL), streptomycin (100 μg/mL) and glutamine (2 mM). CHO cells were cultured in DMEM (Gibco) with the same additions as for the HeLa cells. For microscopy the adherent cell cultures were grown in 35 mm diameter glass-bottom culture dishes with optical quality glass (MatTek Corporation) and incubated at 37° C. in a humidified atmosphere containing 5% CO2. Human umbilical vein endothelial cells (HUVECs) were obtained from TCS Cellworks. HUVECs were sub-cultured in basal medium (TCS Cellworks) supplemented with antibiotic supplement/amphotericin-B, following the detailed guidelines provided by TCS Cellworks.
The fluorescence lifetime imaging system with multiphoton excitation employed lasers for multiphoton excitation consisting of a Ti:Sapphire laser, tuneable between 700 and 1000 nm and providing ca 180 fs pulses at 76 MHz, and an optical parametric oscillator (OPO) pumped by a second Ti:Sapphire laser source. Using the doubled idler output of the OPO, useful energies (>200 mW) could be obtained between 550 and 640 nm. Samples were excited on the stage of Nikon TE2000U inverted microscope using a water immersion ×60 objective of NA 1.2. Using the various microscope ports it was possible to record the fluorescence in a number of ways. The fluorescence signal at one port was relayed to a spectrometer (Acton 275) and CCD setup (Andor iDUS) so that emission spectra and intensities could be recorded. Alternatively the fluorescence signal could be routed via a second port to a time-correlated single photon counting (TCSPC) system (Becker and Hickl SPC-830) allowing fluorescence lifetime measurements and fluorescence lifetime imaging (FLIM), using Becker and Hickl software (SPCImage) for analysis. In FLIM mode the fluorescence was isolated by a suitable narrowband interference filter (400IU25 together with BG3 (Comar)). […] Two photon cross sections were determined using a reference fluorophore as a two photon standard as described by Mathai et al., employing published values of the two-photon cross section for 9-chloroanthracene.
Images of intracellular distribution of E-combretastatins in cell monolayers were obtained using fluorescence lifetime imaging, in which the rastered excitation laser beam dwells on each pixel for a few milliseconds and at each position records a nanosecond fluorescence lifetime decay curve using the time-correlated single photon counting method. […]
Quantification of fluorophore concentration from intensity measurements is often difficult.

[4] = tested on: cells; settings: typical toxicity assays; cited from earlier work
[5] = Two-photon absorption cross section using reference fluorophore 9-chloroanthracene; type: physicochemical; settings: at 620 nm, DCM
Excerpt: Cell images were overlaid using Adobe Photoshop CS3.
Published cross sections for two photon absorption (σ2, the probability of an absorption process or photon interaction) typically show large variations depending on the method of measurement, using either the Z-scan method or a reference fluorophore, and the power range and pulse duration of the laser used for excitation. We have attempted to determine values of σ2 for E-CA4 and E-ACA4 using a reference fluorophore. 9-Chloroanthracene (9CIA) was selected as a standard fluorophore with an appropriate fluorescence spectrum and for which 2PE cross-sections are available. The values of σ2 at 620 nm for E-CA4 and E-CA4F in DCM were determined to be 2.1±0.5 and 2.75±0.6 GM units respectively. […] Values of σ2 at 620 nm for E-ACA and E-DMAC were both 5.7±1.2. These larger values may be consistent with some charge transfer character of the excitation of these compounds.

[6] = Fluorescence quantum yields in solvents, UV one-photon excitation; type: physicochemical; settings: 20° C., 290-300 nm excitation
Experimental: Absorption spectra were measured in either a Perkin Elmer Lambda 25 or 950 spectrophotometer. Fluorescence measurements were made with either a Spex Fluoromax or Varian Cary Eclipse spectrofluorimeter using the spectral correction curves supplied by the manufacturers. Fluorescence quantum yields with UV (one-photon) excitation were determined using either 2-aminopyridine (Φref 0.6 [7]) or 9-chloroanthracene (Φref 0.50 in dichloromethane, determined here relative to 9,10-diphenylanthracene in cyclohexane (Φref 0.97) and anthracene in ethanol (Φref 0.28 [8]) as standards. Fluorescence quantum yields were determined from the relative slopes of plots of integrated fluorescence intensity versus (1-10^−A) for samples having absorbance A≦0.1. The square of the refractive index (n^2) correction was applied when sample and reference compounds were in different solvents. Irradiation of the samples was minimized by the use of narrow excitation slits to reduce simultaneous photoisomerization.
The fluorescence quantum yields for E-CA4F were generally somewhat higher than for E-CA4.

[7] = room temperature, approximately 10 minutes

SMILES: COc1ccc(/C=C/c2cc(OC)c(OC)c(OC)c2)cc1O [E-CA4, (E)-1-(3′,4′,5′-Trimethoxyphenyl)-2-(4″-methoxy-3″-hydroxy-phenyl)ethene]
- Fluorescence lifetime τ ([1]; DCM, ne = non-exponential): 0.50 ns
- Fluorescence lifetime τ ([1]; DMSO): 0.49 ns
- Fluorescence lifetime τ ([1]; EtOH, ne = non-exponential): 0.28 ns
- Fluorescence lifetime τ ([1]; Ethylene glycol, ne = non-exponential): 0.58 ns
- Fluorescence lifetime τ ([1]; Glycerol, ne = non-exponential): 1.18 ns
- Fluorescence lifetime τ ([1]; Hexane): 0.86 ns
- Fluorescence lifetime τ ([1]; MeCN, ne = non-exponential): 0.29 ns
- Fluorescence lifetime τ ([1]; MeOH, ne = non-exponential): 0.23 ns
- Fluorescence lifetime ([1]; acetonitrile): around 220 ps
- Fluorescence lifetime ([1]; as shown in FIG. 10, compared with TRIR in dichloromethane): 500 ps
- Fluorescence lifetime ([1]; glycerol): 1180 ps
- Fluorescence lifetime ([1]; hexane): 855 ps
- Concentrating of the drug, factor relative to the surrounding medium ([2]; 10 μM in the medium): 25-75 times
- Intracellular distribution ([2]; 10 μmol dm^−3, 2PE 628 nm): located mainly within the cytoplasmic region of the cell
- Intracellular concentration as times the concentration in the medium [3]: 20-40 times
- Intracellular concentration, smaller regions [3, 7]: > 4 mM
- Intracellular concentration, substantial regions of the cell cytoplasm [3, 7]: > 2 mM
- Concentrations required to kill cells [4]: micromolar
- Two photon absorption cross section σ2 [5]: 2.1±0.5 GM units
- Fluorescence quantum yield φ ([6]; DCM): 0.19
- Fluorescence quantum yield φ ([6]; DMSO): 0.15
- Fluorescence quantum yield φ ([6]; EtOH): 0.093
- Fluorescence quantum yield φ ([6]; Ethylene glycol): 0.19
- Fluorescence quantum yield φ ([6]; Glycerol): 0.35
- Fluorescence quantum yield φ ([6]; Hexane): 0.36
- Fluorescence quantum yield φ ([6]; MeCN): 0.099
- Fluorescence quantum yield φ ([6]; MeOH): 0.071
